Three molecules from US20190350887A1, “INCREASING BIOAVAILABILITY OF IRON WITH AVENANTHRAMIDE 2c” (priority 2018, published 2019) can be followed below.

This test deals with Caco-2 cells. Description: in vitro Caco-2 cell bioassay of iron bioavailability (ferritin formation). Conditions: for effect on iron bioavailability: same testing conditions as avenanthramide 2c (FIG. 1). Format: cell-based. The procedure:
FIG. 1 is a graph illustrating the results of in vitro tests that were performed in order to predict the effect that avenanthramide 2c, avenanthramide 2p, and avenanthramide 2f would have on iron bioabsorption in humans. Specifically, an in vitro Caco-2 cell bioassay was used that accurately predicts how a compound will influence iron bioabsorption in humans. In these cells, the intracellular iron storage protein known as ferritin forms in direct proportion to cell iron uptake.
[…] The ferric chloride solution is administered to the cells by itself (as a control) and along with the compound(s) being tested to assess their effect iron bioavailability, as measured by the amount of ferritin formed in the cells—a sensitive and accurate measurement of cell iron uptake. The test protocol measures the total weight of cell protein and the total weight of ferritin produced by the cells in order to generate a weight ratio of ferritin to cell protein (in units of ng ferritin formed per mg cell protein). The ratios from the test samples are compared against a control sample wherein only ferric chloride is administered to the cells. Test samples with higher ferritin values (ng ferritin/mg cell protein) compared to the control indicate improvement or enhancement of iron bioavailability, whereas test samples with ferritin values approximately equal to (or within the margin of error) or less than the control indicates no effect on iron bioavailability or inhibition of iron bioavailability, respectively.

For `O=C(/C=C/c1ccc(O)c(O)c1)Nc1ccc(O)cc1C(=O)O` [avenanthramide 2c, 2-[[(E)-3-(3,4-dihydroxyphenyl)prop-2-enoyl]amino]-5-hydroxybenzoic acid], for the setting “5 μM avenanthramide with 10 μM ferric chloride, control = ferric chloride only”, the “iron bioavailability (ferritin formation) compared with control” value is “more than double the control value”. In addition, under “20 μM avenanthramide with 10 μM ferric chloride”, the “ferritin formation relative to control” value was “more than 3.5 times the control value”. In addition, the “ferritin formation, increase over the 5 μM sample” value (20 μM avenanthramide with 10 μM ferric chloride, relative to 5 μM sample) is “more than 1.5 factor”. Moreover, the “ferritin value compared with control and lower concentrations” value (30 μM avenanthramide with 10 μM ferric chloride) is “still above the values measured at 10 μM and 5 μM, and well above control”.

With `O=C(/C=C/c1ccc(O)cc1)Nc1ccc(O)cc1C(=O)O` [avenanthramide 2p, 5-hydroxy-2-[[(E)-3-(4-hydroxyphenyl)prop-2-enoyl]amino]benzoic acid, reference compound], the “effect on iron bioavailability” value is “negligible or zero effect”.

Turning to `COc1cc(/C=C/C(=O)Nc2ccc(O)cc2C(=O)O)ccc1O` [avenanthramide 2f, 5-hydroxy-2-[[(E)-3-(4-hydroxy-3-methoxyphenyl)prop-2-enoyl]amino]benzoic acid, reference compound], the “effect on iron bioavailability” value is “negligible or zero effect”.
